Laboratory results reported in patent US5622983A, “N-substituted cycloalkyl and polycycloalkyl α-substituted Trp-Phe- and phenethylamine derivatives” (Warner-Lambert Company, priority 1995, dated 1997).

Legend:
[1] = Light/dark exploration test (anxiolytic activity); type: in vivo, mouse
Protocol: In FIG. 2 the number of mice was 5 and the pretreatment time was 40 minutes. The compound was given p.o. in 0.1, 1, and 10 mg/kg doses.
The apparatus was an open-topped box, 45 cm long, 27 cm wide, and 27 cm high, divided into a small (2/5) area and a large (3/5) area by a partition that extended 20 cm above the walls. There was a 7.5×7.5 cm opening in the partition at floor level. The small compartment was painted black and the large compartment white. The floor of each compartment was marked into 9 cm squares. The white compartment was illuminated by a 100-watt tungsten bulb 17 cm above the box and the black compartment by a similarly placed 60-watt red bulb. The laboratory was illuminated with red light.
All tests were performed between 13 hundred hours, 0 minutes and 18 hundred hours, 0 minutes. Each mouse was tested by placing it in the center of the white area and allowing it to explore the novel environment for five minutes. Its behavior was recorded on videotape and the behavioral analysis was performed subsequently from the recording. Five parameters were measured: the latency to entry into the dark compartment, the time spent in each area, the number of transitions between compartments, the number of lines crossed in each compartment, and the number of rears in each compartment.
Drugs were dissolved in water or saline and administered either subcutaneously, intraperitoneally, or by mouth (PO) via a stomach needle.

LoVo (xenograft) = assay: LoVo xenograft growth in nude mice; type: in vivo
Protocol: One×10^6 LoVo cells in 0.1 mL serum-free RPMI were injected subcutaneously into the backs of 27 male nude mice. Xenografts were grown for 10 days prior to treatment, then randomly allocated to receive twice daily gavage with either 0.1 mL saline alone or containing 10 mg/kg/day of compound 20 for 20 days. Bidirectional tumor diameter was measured using vernier calipers and converted to volumes […]. The animals were sacrificed on Day 30. The protocol was approved by the UNSW Ethics committee.

[2] = Palatable Diet Feeding assay; type: in vivo, rat; details: dose producing 50% of the maximum effect possible (zero food intake)
Protocol: In the Palatable Diet Feeding assay, adult male Hooded Lister rats weighing between 200-400 g were housed individually and trained to eat a palatable diet. This diet consisted of Nestles sweetened condensed milk, powdered rat food and rat water which when blended together set to a firm consistency. […] The intake of palatable diet was measured by weighing the food container before and after the 30-minute access period (limits of accuracy 0.1 g). Care was taken to collect and correct for any spillage of the diet. Rats had free access to pellet food and water except during the 30-minute test period.
After the training period, dose-response curves were constructed for CCK8 and several representative compounds of the present invention (n=8-10 rats per dose level).

[3] = Aspirin-induced gastric damage; type: in vivo, rat; details: 10 mg/kg PO
Protocol: Aspirin-induced gastric damage was assessed in groups of 10 rats each.
All animals were fasted for 24 hours before and throughout the experiment. Drug or vehicle was given 10 minutes before an oral dose of 1 mL of a 45-mg/mL suspension of aspirin in 0.5% carboxymethylcellulose (CMC).
The animals were sacrificed five hours after aspirin administration and the stomachs removed and opened for examination.

Rat Elevated X-Maze Test = type: in vivo; details: 0.01 to 1.0 mg/kg s.c.
Protocol: The dose was equivalent to 0.1 mg/kg p.o. compound 20.

[4] = 1 mg/kg SC, five-minute measurement periods

## CC(Cc1c[nH]c2ccccc12)(NC(=O)OC1C2CC3CC(C2)CC1C3)C(=O)NCC(NC(=O)CCC(=O)O)c1ccccc1 (stereo not drawn) [Example 20, [R-(R*,R*)-4-[[2-[[3-(1H-indol-3-yl)-2-methyl-1-oxo-2-[[(tricyclo[3.3.1.1^3,7]dec-2-yloxy)carbonyl]amino]propyl]amino]-1-phenylethyl]amino]-4-oxobutanoic acid]
[1]; 1 mg/kg PO
  time spent in the light area of the test box: significantly (p <0.01) increased the time spent in the light area
[1]; [4]
  crossings into the dark area: 24
  crossings into the light area: 85
[1]; p.o. 0.1, 1, and 10 mg/kg, pretreatment 40 minutes
  anxiolytic activity, orally administered (FIG. 2): effectiveness
[1]; subcutaneous
  anxiolytic activity by the subcutaneous route: active
LoVo (xenograft); 10 mg/kg/day by gavage for 20 days
  reduction of tumor volume at Day 30 compared to control: 53%
LoVo (xenograft); 10 mg/kg/day orally, 20 days, p <0.05, ANOVA
  tumor growth overall, mean tumor volume (FIG. 17): significantly inhibited tumor growth overall
LoVo (xenograft); 10 mg/kg/day, p <0.05, ANOVA
  day from which tumor size diverged significantly between control and treated animals: 21 days
[2]
  Inhibition of Feeding on Rat Palatable Diet Assay I.P. MPE50: 17.4 mg/kg
[3]
  reduction in ulcer formation: 48%
[3]; ±SD, saline control 12.1±6.85
  ulcer score: 6.3±4.14
Rat Elevated X-Maze Test
  anxiolytic effect, time spent in the open arm end section (FIG. 14): anxiolytic effects
